Data from a compilation of properties of binary mixtures (doi:10.1016/j.jct.2016.06.015).

Assay: xn = mol fraction of the nth substance listed
Details: 100 kPa

CC[n+]1ccn(C)c1.F[B-](F)(F)F + OCCO
viscosity [mPa·s]
Details	x2 = 0	x2 = 0.099	x2 = 0.2174	x2 = 0.283	x2 = 0.4435	x2 = 0.5237	x2 = 0.5876	x2 = 0.6954	x2 = 0.7916	x2 = 0.8751
293.15 K	50.5	36.8	26.8	23.4	18	16.5	15.8	–	15	15.8
298.15 K	41.5	30.7	22.6	–	–	13.8	13.1	–	12.3	12.9
303.15 K	–	25.9	19.3	16.9	12.9	11.8	11.1	10.3	10.3	10.8
313.15 K	24.8	19.1	14.3	12.7	–	8.77	8.22	7.56	7.43	7.71
323.15 K	18.6	14.6	11.2	9.9	–	6.81	–	5.77	5.6	5.74
333.15 K	14.5	11.5	8.98	7.96	–	–	5.05	4.55	4.37	–
343.15 K	11.7	9.32	7.34	6.53	–	4.47	–	3.69	3.51	3.5
353.15 K	–	7.69	6.12	5.47	4.21	3.75	–	–	–	2.85

CC[n+]1ccn(C)c1.F[B-](F)(F)F + CS(C)=O
viscosity [mPa·s]
Details	x2 = 0	x2 = 0.0872	x2 = 0.2021	x2 = 0.2931	x2 = 0.4098	x2 = 0.4781	x2 = 0.5718	x2 = 0.6689	x2 = 0.7866	x2 = 0.8959
293.15 K	50.5	43.1	35.1	29.5	22.8	–	14.5	10.3	6.32	3.84
298.15 K	41.5	35.5	29.1	24.6	–	16.1	12.3	8.84	5.55	3.43
303.15 K	34.5	29.7	24.5	20.8	16.3	13.8	10.6	7.69	–	3.09
313.15 K	–	21.6	18	–	12.1	10.4	8.08	5.98	3.92	2.52
323.15 K	18.6	16.3	13.7	11.8	9.43	8.09	6.37	4.78	3.21	2.13
333.15 K	14.5	12.8	10.8	9.36	7.53	6.5	5.15	3.91	2.68	1.83
343.15 K	–	10.3	8.73	–	6.16	5.33	4.24	3.24	2.28	–
353.15 K	9.58	8.4	7.18	6.29	5.15	–	3.59	2.77	1.97	1.42

OCCO + CC[n+]1ccn(C)c1.F[B-](F)(F)F
x1 = 1
Details	viscosity [mPa·s]
303.15 K	14.3
313.15 K	10
333.15 K	5.33
353.15 K	3.24

CC#N + CC[n+]1ccn(C)c1.F[B-](F)(F)F
x1 = 1
Details	viscosity [mPa·s]
293.15 K	0.386
298.15 K	0.37
313.15 K	0.327
323.15 K	0.302
333.15 K	0.281
343.15 K	0.262

C1COCCO1 + CC[n+]1ccn(C)c1.F[B-](F)(F)F
x1 = 1
Details	viscosity [mPa·s]
293.15 K	1.29
298.15 K	1.18
303.15 K	1.09
313.15 K	0.934
333.15 K	0.718
353.15 K	0.577

CC[n+]1ccn(C)c1.F[B-](F)(F)F + CC#N
viscosity [mPa·s]
Details	x2 = 0	x2 = 0.0797	x2 = 0.1787	x2 = 0.2803	x2 = 0.3682	x2 = 0.4903	x2 = 0.5753	x2 = 0.7116	x2 = 0.8301
293.15 K	50.5	37.4	–	18.1	12.3	7.49	4.83	2.48	1.21
298.15 K	41.5	31.1	21.4	15.6	10.7	6.64	4.38	2.29	–
303.15 K	34.5	26.2	18.3	13.5	9.45	5.94	4	2.11	1.08
313.15 K	24.8	19.4	14	–	–	4.85	3.36	1.82	0.961
323.15 K	–	14.9	11	–	–	4.05	2.87	–	0.866
333.15 K	14.5	11.8	8.88	–	5.07	3.44	2.48	–	0.785
343.15 K	11.7	9.6	7.29	5.68	–	2.97	2.17	–	–

CC[n+]1ccn(C)c1.F[B-](F)(F)F + C1COCCO1
viscosity [mPa·s]
Details	293.15 K	298.15 K	303.15 K	313.15 K	323.15 K	333.15 K	343.15 K	353.15 K
x2 = 0	–	41.5	–	24.8	–	14.5	11.7	9.58
x2 = 0.1664	35.8	29.8	–	18.5	14.3	11.1	8.96	7.38
x2 = 0.2149	32.1	–	–	–	13	10.3	8.38	6.91
x2 = 0.3162	24.9	21	18.1	13.6	10.6	8.52	6.97	5.81
x2 = 0.3591	22.2	18.8	16.2	12.3	9.69	–	6.41	5.37
x2 = 0.5077	13.8	12	10.5	8.21	–	–	4.53	3.86
x2 = 0.5453	12.2	10.6	–	7.33	–	4.9	4.12	–
x2 = 0.6708	7.1	6.42	5.51	4.48	3.86	3.11	2.65	2.3

CS(C)=O + CC[n+]1ccn(C)c1.F[B-](F)(F)F
x1 = 1
Details	viscosity [mPa·s]
293.15 K	2.21
298.15 K	2.01
303.15 K	1.84
313.15 K	1.56
323.15 K	1.34
333.15 K	1.17
343.15 K	1.03
353.15 K	0.917
